Columns and labels:
[1] = tested on: LMP1 dependent upregulation of PML NBs; assay: Transfection/inhibitor studies of LMP1 upregulation of PML NBs; assay type: cell-based
Description: A series of transfection/inhibitor studies were carried out to investigate the mechanism of upregulation of the PML-NB by LMP1. […] Either inhibition of ERK phosphorylation by U0126 or Stat3 dimerization by Stattic, however, prevented the LMP1 dependent upregulation of PML NBs.

LCL<EBV1-13> cells = assay type: cell-based, human
EBV BMRF1 mRNA = assay type: cell-based, Epstein-Barr virus; details: 10 nM ATO and/or 40 μM GCV
EBV Zta protein = assay type: in vivo, male nude mice; details: mouse, in vivo
CNE1<EBV BX1> tumors = assay: CNE1<EBV BX1> nasopharyngeal carcinoma xenograft, tumor volume; assay type: in vivo, male nude mice; details: 21 days of once daily treatment; GCV 100 μg/g, ATO 100 ng/g; carrier control just under double
[2] = tested on: uninfected parental A549 cells; details: 4 days, 10 nM ATO, 40 μM GCV
EBV Zta mRNA = assay type: cell-based, Epstein-Barr virus
[3] = tested on: APL and non-APL cell lines; details: Konig et al., 1997; cited from earlier work
[4] = tested on: nonmalignant blood mononuclear cells from normal donors; details: cited from earlier work

For N#CC(=C(/N)Sc1ccccc1N)/C(C#N)=C(\N)Sc1ccccc1N [U0126], the “effect on LMP1 upregulation of PML NBs” value [1] was “prevented”.
For Nc1nc2c(ncn2COC(CO)CO)c(=O)[nH]1 [GCV, 9-[[2-hydroxy-1-(hydroxymethyl)-ethoxy]methyl]guanine], the “viable cells after a third day of treatment compared with two days” value (LCL<EBV1-13> cells) was “did not result in reducing the number of viable cells”, the “BMRF1 mRNA expression over 7 days” value (EBV BMRF1 mRNA) was “no effect” and the “Zta expression in tumor explant tissue” value (EBV Zta protein) was “Only the occasional Zta positive cell”. The “tumor size increase over size at day 7 (pre-treatment)” value (CNE1<EBV BX1> tumors) was “approximately 25%”, the “viability of uninfected parental cells” value [2] was “did not affect the viability” and the “Zta mRNA expression over 7 days” value (EBV Zta mRNA) was “no effect”.
For Nc1nc(N)nc(Nc2ccc([As]3SCC(CO)S3)cc2)n1 (centres unmarked) [Melarsoprol, melarsoprol], the “activity against APL and non-APL cell lines” value [3] is listed as “at least equivalent to that of arsenic trioxide”.
In the case of O=[N+]([O-])c1ccc2c(c1)S(=O)(=O)C=C2 [Stattic], the “effect on LMP1 upregulation of PML NBs” value [1] is reported as “prevented”.
In the case of C[As](C)SC[C@H](NC(=O)CC[C@H](N)C(=O)O)C(=O)NCC(=O)O [SGLU1, S-(dimethylarsino) glutathione], the “toxicity against nonmalignant blood mononuclear cells” value [4] is given as “low toxicity”.
For Cc1ccc(NCCCc2ccccc2)c(N)c1 [JSH23], the “effect on LMP1 upregulation of PML NBs” value [1] was “did not affect”.

Reference: patent US20140017336A1, “CO-ADMINISTRATION OF ARSENIC COMPOUNDS AND ANTI-HERPES VIRUS ANTI-VIRALS” (priority 2011, published 2014)
